Article PMC10098121, “Amphipathic barbiturates as marine product mimics with cytolytic and immunogenic effects on head and neck squamous cell carcinoma cell lines” (Frontiers in Pharmacology, 2023)

tested on: human red blood cells; assay: Hemolysis assay; type: cell-based; conditions: Homo sapiens, Erythrocyte; 1 h, 37°C; highest concentration tested 500 μM; average of three experiments; read-out: EC50 hemolytic activity against human red blood cells
Method: The hemolytic effect of the MPMs was determined using a hemolysis assay as previously described ([Paulsen et al., 2021]). Briefly, hemolysis was determined using a heparinized fraction (10 IU/mL) of freshly drawn blood. The blood collected in ethylenediaminetetraacetic acid-containing test tubes (Vacutest, KIMA, Arzergrande, Italy) was used for the determination of the hematocrit (hct). The heparinized blood was washed 3 × with pre-warmed phosphate-buffered saline (PBS) and adjusted to a final hct of 4%. MPMs in DMSO (50 mM) were added to a 96-well polypropylene V-bottom plate (NUNC, Fisher Scientific, Oslo, Norway) and serially diluted. The test concentration range was 4–500 μM with DMSO contents ≤1%. A solution of 1% triton X-100 was used as a positive control for 100% hemolysis. As a negative control, a solution of 1% DMSO in PBS was included. Red blood cells (1% v/v final concentration) were added to the well plate and incubated at 37°C and 800 rpm for 1 h. After centrifugation (5 min, 3000 g), 100 μL from each well was transferred to a 96-well flat-bottomed microtiter plate, and absorbance was measured at 545 nm with a microplate reader (VersaMaxTM, Molecular Devices, Sunnyvale, CA, United States). The percentage of hemolysis was calculated as the ratio of the absorbance in the MPM treated and surfactant-treated samples, corrected for the PBS background. Three independent experiments were performed, and EC50 values are presented as averages.

SMILES	EC50
NCCCCCN1C(=O)N(CCCCCN)C(=O)C(CCCc2ccccc2)(CCCc2ccccc2)C1=O [MPM-5:0]	313 µM

same assay, conditions: test range 4–500 μM

SMILES	hemolytic activity against red blood cells (in words)
NCCCCCN1C(=O)N(CCCCCN)C(=O)C(CCCc2ccccc2)(CCCc2ccccc2)C1=O [MPM-5:0]	the second lowest RBC EC50

tested on: HSC-3; assay: High throughput drug screening (CellTiter-Glo, DSS); type: cell-based, human; conditions: HSC-3, 72 h, 10-100,000 nM, myogel, non-irradiated
Method: (§1) The MPMs were screened against a panel of […] different cell lines (HSC-3, UT-SCC-8, UT-SCC-24A, UT-SCC-24B, UT-SCC-42A, UT-SCC-42B and NOF) at the High Throughput Biomedicine Unit (HTB) at the Institute for Molecular Medicine Finland (FIMM). On day 1, black-walled 384-well plates were coated with 5 µl diluted myogel (0.5 mg/ml) per well using an automated reagent dispenser (MultiFlo FX, BioTek, Winooski, VT, United States). On day 2, 500 cells per well were seeded in 20 µl of complete media using the MultiFlo FX (BioTek), and the cells were left to adhere overnight. On day 3, the MPMs, cisplatin, DMSO and Benzethonium chloride were added to the cells using an automatic liquid handler (Echo 550, Labcyte Inc., San Jose, CA, United States). Cisplatin and the MPMs were added to yield five different concentrations in a ten-fold dilution series ranging from 10 to 100,000 nM. Each concentration was tested in triplicate wells. DMSO (0.1%) and benzethonium chloride (100 µM) served as negative and positive control, respectively. Three hours later, some of the plates were irradiated with 2 Gy in a gamma irradiator (OB29/4, STS, Braunschweig, Germany). All plates were taken to the irradiation room to ensure similar handling of the plates. 72 h later, the plates were cooled to room temperature before 25 µl of CellTiter-Glo 2.0 reagent (Promega, Madison, WI, USA) was added to each well using the MultiFlo FX (BioTek). Next, the plates were centrifuged for 5 min at 1,000 rpm before the luminescence signal was measured with the PHERAstar FS HT reader (BMG LABTECH GmbH, Ortenberg, Germany). The raw data was analyzed with the Breeze software (https://breeze.fmm.fi), which normalized the luminescence signal from treated cells against the signal from negative and positive control cells to calculate the percentage of inhibition and generate dose-response curves, which were then used to calculate drug sensitivity scores (DSS). The DSS is a parameter which combines the IC50, the slope of the dose-response curve, and the minimum and maximum responses into a single metric, as previously described ([Yadav et al., 2014]). Quality control was performed by calculation of the Z′-factor, which was >0.7 for all cell lines, indicating high quality of the assay ([Zhang et al., 1999]).

SMILES	drug sensitivity score (DSS)
NCCCCCN1C(=O)N(CCCCCN)C(=O)C(CCCc2ccccc2)(CCCc2ccccc2)C1=O [MPM-5:0]	17,6

same assay, conditions: HSC-3; DSS irradiated (2 Gy) minus DSS non-irradiated; >5 synergy, <–5 antagonism

SMILES	delta DSS (ΔDSS)
NCCCCCN1C(=O)N(CCCCCN)C(=O)C(CCCc2ccccc2)(CCCc2ccccc2)C1=O [MPM-5:0]	0,2

tested on: NOF (normal oral fibroblasts); assay: as above; type: cell-based, human; conditions: 72 h, 10-100,000 nM, myogel, non-irradiated
Method: as §1

SMILES	drug sensitivity score (DSS)
NCCCCCN1C(=O)N(CCCCCN)C(=O)C(CCCc2ccccc2)(CCCc2ccccc2)C1=O [MPM-5:0]	19

same assay, conditions: DSS irradiated (2 Gy) minus DSS non-irradiated, >5 synergy, <–5 antagonism

SMILES	delta DSS (ΔDSS)
NCCCCCN1C(=O)N(CCCCCN)C(=O)C(CCCc2ccccc2)(CCCc2ccccc2)C1=O [MPM-5:0]	-1,2

tested on: UT-SCC-106A; assay: as above; type: cell-based, human; conditions: 72 h, 10-100,000 nM, myogel, non-irradiated
Method: as §1

SMILES	drug sensitivity score (DSS)
NCCCCCN1C(=O)N(CCCCCN)C(=O)C(CCCc2ccccc2)(CCCc2ccccc2)C1=O [MPM-5:0]	17,9

same assay, conditions: DSS irradiated (2 Gy) minus DSS non-irradiated, >5 synergy, <–5 antagonism

SMILES	delta DSS (ΔDSS)
NCCCCCN1C(=O)N(CCCCCN)C(=O)C(CCCc2ccccc2)(CCCc2ccccc2)C1=O [MPM-5:0]	-1

tested on: UT-SCC-24A; assay: as above; type: cell-based, human; conditions: 72 h, 10-100,000 nM, myogel, non-irradiated
Method: as §1

SMILES	drug sensitivity score (DSS)
NCCCCCN1C(=O)N(CCCCCN)C(=O)C(CCCc2ccccc2)(CCCc2ccccc2)C1=O [MPM-5:0]	17,4

same assay, conditions: DSS irradiated (2 Gy) minus DSS non-irradiated, >5 synergy, <–5 antagonism

SMILES	delta DSS (ΔDSS)
NCCCCCN1C(=O)N(CCCCCN)C(=O)C(CCCc2ccccc2)(CCCc2ccccc2)C1=O [MPM-5:0]	-1,2

tested on: UT-SCC-24B; assay: as above; type: cell-based, human; conditions: 72 h, 10-100,000 nM, myogel, non-irradiated
Method: as §1

SMILES	drug sensitivity score (DSS)
NCCCCCN1C(=O)N(CCCCCN)C(=O)C(CCCc2ccccc2)(CCCc2ccccc2)C1=O [MPM-5:0]	18,2

same assay, conditions: DSS irradiated (2 Gy) minus DSS non-irradiated, >5 synergy, <–5 antagonism

SMILES	delta DSS (ΔDSS)
NCCCCCN1C(=O)N(CCCCCN)C(=O)C(CCCc2ccccc2)(CCCc2ccccc2)C1=O [MPM-5:0]	-0,5

tested on: UT-SCC-42A; assay: as above; type: cell-based, human; conditions: 72 h, 10-100,000 nM, myogel, non-irradiated
Method: as §1

SMILES	drug sensitivity score (DSS)
NCCCCCN1C(=O)N(CCCCCN)C(=O)C(CCCc2ccccc2)(CCCc2ccccc2)C1=O [MPM-5:0]	13,5

same assay, conditions: DSS irradiated (2 Gy) minus DSS non-irradiated, >5 synergy, <–5 antagonism

SMILES	delta DSS (ΔDSS)
NCCCCCN1C(=O)N(CCCCCN)C(=O)C(CCCc2ccccc2)(CCCc2ccccc2)C1=O [MPM-5:0]	-0,8

tested on: UT-SCC-42B; assay: as above; type: cell-based, human; conditions: 72 h, 10-100,000 nM, myogel, non-irradiated
Method: as §1

SMILES	drug sensitivity score (DSS)
NCCCCCN1C(=O)N(CCCCCN)C(=O)C(CCCc2ccccc2)(CCCc2ccccc2)C1=O [MPM-5:0]	11,5

same assay, conditions: DSS irradiated (2 Gy) minus DSS non-irradiated, >5 synergy, <–5 antagonism

SMILES	delta DSS (ΔDSS)
NCCCCCN1C(=O)N(CCCCCN)C(=O)C(CCCc2ccccc2)(CCCc2ccccc2)C1=O [MPM-5:0]	-0,5

tested on: UT-SCC-8; assay: as above; type: cell-based, human; conditions: UT-SCC-8, 72 h, 10-100,000 nM, myogel, non-irradiated
Method: as §1

SMILES	drug sensitivity score (DSS)
NCCCCCN1C(=O)N(CCCCCN)C(=O)C(CCCc2ccccc2)(CCCc2ccccc2)C1=O [MPM-5:0]	18,1

same assay, conditions: UT-SCC-8; DSS irradiated (2 Gy) minus DSS non-irradiated; >5 synergy, <–5 antagonism

SMILES	delta DSS (ΔDSS)
NCCCCCN1C(=O)N(CCCCCN)C(=O)C(CCCc2ccccc2)(CCCc2ccccc2)C1=O [MPM-5:0]	0,4

tested on: Bacillus subtilis 168; assay: Bacterial minimum inhibitory concentration (broth microdilution); type: cell-based; conditions: Bacillus subtilis 168, 48 h, 35 °C, di-TFA salts
Method: (§2) Method for determination of bacterial minimum inhibitory concentration (MIC) Stock solutions of the water-soluble compounds were prepared by dissolving them in ultrapure water (Milli-Q H2O, Millipore, MA, USA). The less water-soluble compounds were first dissolved in 25 - 50 µL 100% DMSO before further dilution with ultrapure water. The DMSO concentration was always less than 1% in the working concentration of each compound. A modified broth microdilution susceptibility test based on the CLSI M07-A9 protocol, [2] was used to determine minimal inhibitory concentrations (MIC). Briefly, the test compounds were two-fold diluted with ultrapure water in polystyrene 96-well flat-bottom microplates (NUNC, Roskilde, Denmark). The bacterial inoculum was diluted to 2.5 - 3 x 10^4 cells/mL in Mueller-Hinton broth (MHB, Difco Laboratories, USA) and added to the different diluted compounds in a ratio of 1:1. Positive control (ciprofloxacin, Sigma-Aldrich, USA), negative control (bacteria + water), and media control (media + water) were included in each experiment. The microplates were incubated for 48 h at 35 °C in an EnVision microplate reader (PerkinElmer, Waltham, MA, USA). The lowest concentration of compounds that caused no bacterial growth, as determined by optical density (OD600) measurements, was defined as the MIC value. All compounds were tested in 3 technical replicates.
(§3) Supplementary Video S1. HSC-3 cells were seeded at 100% confluence and a standard scratch wound migration assay was performed. The cells were imaged every 2 hours for 24 hours. The video

SMILES	MIC
NCCCCCN1C(=O)N(CCCCCN)C(=O)C(CCCc2ccccc2)(CCCc2ccccc2)C1=O [MPM-5:0]	4 µg/mL

tested on: Escherichia coli ATCC 25922; assay: as above; type: cell-based; conditions: ATCC25922; Escherichia coli ATCC 25922, 48 h, 35 °C, di-TFA salts
Method: as §2, §3

SMILES	MIC
NCCCCCN1C(=O)N(CCCCCN)C(=O)C(CCCc2ccccc2)(CCCc2ccccc2)C1=O [MPM-5:0]	32 µg/mL

tested on: Pseudomonas aeruginosa ATCC 27853; assay: as above; type: cell-based; conditions: ATCC27853; Pseudomonas aeruginosa ATCC 27853, 48 h, 35 °C, di-TFA salts
Method: as §2, §3

SMILES	MIC
NCCCCCN1C(=O)N(CCCCCN)C(=O)C(CCCc2ccccc2)(CCCc2ccccc2)C1=O [MPM-5:0]	32 µg/mL

tested on: Staphylococcus aureus ATCC 9144; assay: as above; type: cell-based; conditions: ATCC9144; Staphylococcus aureus ATCC 9144, 48 h, 35 °C, di-TFA salts
Method: as §2, §3

SMILES	MIC
NCCCCCN1C(=O)N(CCCCCN)C(=O)C(CCCc2ccccc2)(CCCc2ccccc2)C1=O [MPM-5:0]	8 µg/mL
